Values quoted from earlier work, collected in US20170042143A1, “ANIONIC POLYVINYL ALCOHOL COPOLYMER AS PROTECTIVE COLLOID FOR PESTICIDAL POLYUREA MICROCAPSULES” (BASF SE, priority 2014, published 2017).

Conditions: at 20° C.

## Cc1ccccc1CO[C@@H]1C[C@@]2(C(C)C)CC[C@]1(C)O2 (racemic) [Cinmethylin]
  solubility in water: about 0.06 g/l
